For one assay, the target named is T1, Δ^6 -desaturase (Rattus norvegicus, UniProt Q9Z122).
T1 construct: The pellet was suspended in the homogenization solution to obtain a microsome solution; from tissue; host or cells: liver microsomes of a male Wistar rat
Kind of assay: Inhibition of Δ6-desaturase in rat liver microsome ([1-14C]-linoleic acid substrate). It counts as biochemical, rat (Wister male). The note with it: read-out: Inhibition on Δ^6 - (%).

For the next assay, the target named is T2, Δ^5 -desaturase (Rattus norvegicus, UniProt Q920R3).
T2 construct: from tissue; host or cells: liver microsomes of a male Wistar rat
T2 sequence (Q920R3 whole entry, stated change not applied): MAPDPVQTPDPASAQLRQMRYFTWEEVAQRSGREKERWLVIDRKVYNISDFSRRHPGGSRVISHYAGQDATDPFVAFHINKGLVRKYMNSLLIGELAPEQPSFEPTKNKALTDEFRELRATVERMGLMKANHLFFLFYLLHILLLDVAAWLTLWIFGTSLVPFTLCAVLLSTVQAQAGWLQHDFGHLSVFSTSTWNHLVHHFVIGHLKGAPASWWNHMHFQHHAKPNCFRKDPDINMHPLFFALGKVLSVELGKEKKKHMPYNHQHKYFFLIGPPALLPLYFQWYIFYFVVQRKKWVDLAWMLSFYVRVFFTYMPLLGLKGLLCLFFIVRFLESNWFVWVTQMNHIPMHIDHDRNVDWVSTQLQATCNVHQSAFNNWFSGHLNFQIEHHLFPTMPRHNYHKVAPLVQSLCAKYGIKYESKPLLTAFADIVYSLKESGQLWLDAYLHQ
As to the kind of experiment: Inhibition of Δ5-desaturase in rat liver microsome (conversion of [2-14C]-dihomo-γ-linolenic acid to arachidonic acid). Type of assay: biochemical, rat (Wister male). The note with it: for inhibition at 30 µg/mL: read-out: Inhibition on Δ^5 -desaturase (%); for specific inhibition of Δ^5 -desaturase / inhibition of Δ^5 -desaturation reaction from dihomo-γ-linolenic acid to arachidonic acid: in words; for specific inhibition of Δ^5 -desaturase: figure legends, compared with Δ^6 -desaturase (and Δ^9 -desaturase for sesamin); for inhibition of Δ^5 -desaturation reaction from dihomo-γ-linolenic acid to arachidonic acid: 0.001 to 0.5 mg/ml, FIGS. 1, 2 and 3, rat liver microsome. Here is the method:
As a homogenization solution, a 50 mM phosphate buffer (pH 7.4) containing 0.15M KCl, 5 mM MgCl2.6H2 O, 1 mM EDTA, 0.25M saccharose and 1.5 mM glutathione was used. The liver of a Wister male rat was perfused with physiological saline and removed, and to the removed liver was added 4-fold by weight of the homogenization solution, and the whole was homogenized. The homogenate was centrifuged at 10,000×g for 20 minutes to obtain a supernatant, which was centrifuged at 100,000×g for one hour to obtain a pellet. The pellet was suspended in the homogenization solution to obtain a microsome solution containing 12.24 mg/ml protein. The above-mentioned procedures were carried out at 4° C.
To assay the Δ^5 -desaturase activity 100 μl of the rat liver microsome solution was added to 1 ml of 0.1M phosphate buffer (PH7.4) containing 0.25M saccharose, 0.15M KCl, 1.5 mM glutathione, 45 mM NaF, 0.5 mM nicotinamide, 5 mM MgCl2.6H20 O, 7.5 mM ATP, 0.4 mM CoA.Na2, 1.5 mM NADH, and 100 μM dihomo-γ-linolenic acid containing 0.1 μCi (1.7 nmoles) [2-^14 C]-dihomo-γ-linolenic acid per 1 ml, the mixture was incubated at 37° C for one hour, followed by an addition of 5 ml of ethanol to terminate the reaction. To the reaction mixture was added 1 ml of 4N KOH, and mixture was incubated at 60° C for 30 minutes for saponification. After the reaction, 3 ml of water, 100 μg of dihomo-γ-linolenic acid and 1 ml of 6N HCl were added thereon, and fatty acids in the reaction mixture were extracted twice with 5 ml of hexane. The extract was evaporated in a centrifuge evaporator and 1 ml of ethyl ether/methanol (9:1) was added to the residue, and the fatty acids were methylated with diazomethane. After allowing to stand at a room temperature for 30 minutes, the reaction mixture was evaporated in a centrifuge evaporator to remove the solvent, whereby methyl esters of the resulting fatty acids were obtained. The esters were separated on a 10% AgNO3 silica gel plate using petroleum ether/ethyl ether (1:1) as a developing solvent. Silica gel portions corresponding to the substrate dihomo-γ-linolenic acid and the product arachidonic acid respectively were peeled off, and to 5 ml of toluene-based scintillation fluid solution was added to the silica gel to measure the radioactivity by a scintillation counter. The radioactivity of the generated arachidonic acid was determined by subtracting a radioactivity at the onset of the reaction from a radioactivity after the reaction.
The enzyme inhibitory activities of sesamin, episesamin and sesamomolin were measured according to the above-mentioned procedure, except that the reaction mixture contained 0.001 to 0.5 mg/ml sesamin, episesamin or sesamolin. The radioactivity was measured as described above, and the percent inhibition was calculated.

Like-named read-outs stand apart in the source and are kept apart here.

T1 sequence (Q9Z122 whole entry, stated change not applied): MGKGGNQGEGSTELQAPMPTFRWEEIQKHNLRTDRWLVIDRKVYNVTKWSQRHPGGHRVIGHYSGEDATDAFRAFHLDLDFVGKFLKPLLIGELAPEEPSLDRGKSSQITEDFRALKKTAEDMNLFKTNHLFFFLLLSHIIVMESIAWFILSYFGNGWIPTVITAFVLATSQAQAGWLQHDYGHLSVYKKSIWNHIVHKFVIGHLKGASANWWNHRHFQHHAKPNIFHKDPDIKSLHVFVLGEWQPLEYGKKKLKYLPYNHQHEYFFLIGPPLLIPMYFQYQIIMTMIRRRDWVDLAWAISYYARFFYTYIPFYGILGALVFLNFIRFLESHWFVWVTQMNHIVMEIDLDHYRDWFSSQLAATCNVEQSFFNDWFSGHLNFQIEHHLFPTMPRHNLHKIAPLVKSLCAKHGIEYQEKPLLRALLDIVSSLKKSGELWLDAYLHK

As for `COc1cc(/C=C/C(=O)CC(=O)/C=C/c2ccc(O)c(OC)c2)ccc1O` [Curcumin], at Δ^6 -desaturase (0.03 mg/ml, rat liver microsome), the inhibition at 30 µg/mL is 36.1%.

With `CCCCOCCOCCOCc1cc2c(cc1CCC)OCO2` [Piperonyl butoxide], the values for the inhibition at 30 µg/mL on Δ^5 -desaturase and on Δ^6 -desaturase were 32.5% and 0%, respectively.

For `c1cc2c(cc1[C@H]1OC[C@H]3[C@@H]1CO[C@@H]3c1ccc3c(c1)OCO3)OCO2` [Sesamin], on Δ^5 -desaturase, the “specific inhibition of Δ^5 -desaturase” value is on record as “specifically inhibits”, the “inhibition of Δ^5 -desaturation reaction from dihomo-γ-linolenic acid to arachidonic acid” value is given as “inhibited” and the inhibition at 30 µg/mL was determined as 39.2%. For the same molecule, at Δ^6 -desaturase, the inhibition at 30 µg/mL stood at 0%.

Turning to `c1cc2c(cc1O[C@H]1OC[C@H]3[C@@H]1CO[C@@H]3c1ccc3c(c1)OCO3)OCO2` [Sesamolin], on Δ^5 -desaturase, the “specific inhibition of Δ^5 -desaturase” value is “specifically inhibits” and the “inhibition of Δ^5 -desaturation reaction from dihomo-γ-linolenic acid to arachidonic acid” value is recorded as “inhibited”.
